Assays:
[1] = target: T1, α-amylase (porcine pancreatic amylase) (Sus scrofa, UniProt P00690); assay: starch hydrolysis / dinitrosalicylate colorimetric alpha-amylase inhibition assay; percent inhibition at […] µg; type: biochemical
T1 construct: gene AMY2
T1 sequence (P00690 16-511): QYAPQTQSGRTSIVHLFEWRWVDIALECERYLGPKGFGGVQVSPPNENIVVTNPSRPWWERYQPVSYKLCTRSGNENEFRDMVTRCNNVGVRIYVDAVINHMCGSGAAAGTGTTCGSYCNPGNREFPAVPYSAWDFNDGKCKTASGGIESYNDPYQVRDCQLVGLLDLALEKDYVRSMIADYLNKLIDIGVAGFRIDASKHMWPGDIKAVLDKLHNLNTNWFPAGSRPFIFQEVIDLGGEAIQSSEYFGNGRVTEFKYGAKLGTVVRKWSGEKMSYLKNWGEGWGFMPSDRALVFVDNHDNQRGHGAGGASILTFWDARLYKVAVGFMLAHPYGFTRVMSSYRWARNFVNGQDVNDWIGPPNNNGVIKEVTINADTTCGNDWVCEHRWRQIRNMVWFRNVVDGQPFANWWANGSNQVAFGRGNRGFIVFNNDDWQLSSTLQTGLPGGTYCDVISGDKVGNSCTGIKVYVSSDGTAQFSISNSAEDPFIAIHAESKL

[2] = target: T1, α-amylase (porcine pancreatic amylase); assay: starch hydrolysis / dinitrosalicylate colorimetric alpha-amylase inhibition assay; type: biochemical

For `C[C@H]1O[C@H](O[C@H]2[C@H](O)[C@@H](O)[C@@H](O[C@H]3[C@H](O)[C@@H](O)C(O)O[C@@H]3CO)O[C@@H]2CO)[C@H](O)[C@@H](O)[C@@H]1N[C@H]1C=C(CO)[C@@H](O)[C@H](O)[C@H]1O` (some centres unmarked) [acarbose], the “%” value [1] was 87.08 ± 1.328%.

`COC(=O)[C@@]1(O)c2ccccc2C(=O)[C@]1(O)CC=C(C)C` [indanone derivative, methyl (1R trans, 2S trans)-1,2-dihydroxy-2-(3-methylbut-2-en-1-yl)-3-oxo-2,3-dihydro-1H-indene-1-carboxylate] gave an IC50 [2] of 46.4 µM.
